Activity calls are given as the source filed them.
Key:
Caspase-6 = target: T1, Caspase-6 (Homo sapiens, UniProt P55212); assay: human caspase-6 inhibitors, dose response, biochemical, VEID-R110 fluorescence, cherry-pick (AID 720632)
T1 sequence (P55212 whole entry): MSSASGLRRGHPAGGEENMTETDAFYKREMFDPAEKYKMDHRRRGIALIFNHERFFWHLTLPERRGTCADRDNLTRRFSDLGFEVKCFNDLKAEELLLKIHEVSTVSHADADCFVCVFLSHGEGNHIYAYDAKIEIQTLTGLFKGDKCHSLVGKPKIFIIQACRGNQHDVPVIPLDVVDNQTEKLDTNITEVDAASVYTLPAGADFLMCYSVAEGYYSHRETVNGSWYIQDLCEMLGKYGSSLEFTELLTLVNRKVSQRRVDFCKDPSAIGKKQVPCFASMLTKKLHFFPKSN

[1] = Shn3 3'UTR reporter inhibitors, dose response, cell-based, Clone20 osteoblasts, firefly luciferase, cherry-picked (AID 624132); type: functional;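 further: firefly luciferase luminescence from reporter carrying the Shn3 3'UTR in osteoblasts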
cells = type: functional, cell-based; settings: HEK-CNG
Galanin receptor type 3 = target: T2, Galanin receptor type 3 (Homo sapiens, UniProt O60755); assay: Fluorescence-based cell-based primary high throughput dose response assay to identify antagonists of the Galanin Receptor 3 (GalR3).; type: functional
T2 sequence (O60755 whole entry): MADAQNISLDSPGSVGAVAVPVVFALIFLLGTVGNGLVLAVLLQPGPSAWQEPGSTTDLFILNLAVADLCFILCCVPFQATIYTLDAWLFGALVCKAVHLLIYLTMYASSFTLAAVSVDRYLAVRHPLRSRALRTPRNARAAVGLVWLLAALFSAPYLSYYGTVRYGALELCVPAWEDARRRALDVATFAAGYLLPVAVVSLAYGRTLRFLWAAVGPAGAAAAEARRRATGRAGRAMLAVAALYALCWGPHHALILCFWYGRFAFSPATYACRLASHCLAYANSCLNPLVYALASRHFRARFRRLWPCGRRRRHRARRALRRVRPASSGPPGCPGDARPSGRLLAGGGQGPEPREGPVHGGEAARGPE

[2] = HepG2 cell cytotoxicity, dose response, cytotoxicity control for Shn3 inhibitor project, CellTiter-Glo, cherry-picked (AID 624134); type: functional, cell-based
[3] = target: T3, COUP transcription factor 2 (Homo sapiens, UniProt P24468); assay: Luminescence-based cell-based high throughput dose response assay to identify inhibitors of COUP-TFII (NR2F2).; type: functional;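 further: HEK293 cells transiently cotransfected with COUP-TFII expression vector and reporter; luciferase reporter luminescence driven by COUP-TFII from the pX2-168 reporter plasmid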
T3 sequence (P24468 whole entry): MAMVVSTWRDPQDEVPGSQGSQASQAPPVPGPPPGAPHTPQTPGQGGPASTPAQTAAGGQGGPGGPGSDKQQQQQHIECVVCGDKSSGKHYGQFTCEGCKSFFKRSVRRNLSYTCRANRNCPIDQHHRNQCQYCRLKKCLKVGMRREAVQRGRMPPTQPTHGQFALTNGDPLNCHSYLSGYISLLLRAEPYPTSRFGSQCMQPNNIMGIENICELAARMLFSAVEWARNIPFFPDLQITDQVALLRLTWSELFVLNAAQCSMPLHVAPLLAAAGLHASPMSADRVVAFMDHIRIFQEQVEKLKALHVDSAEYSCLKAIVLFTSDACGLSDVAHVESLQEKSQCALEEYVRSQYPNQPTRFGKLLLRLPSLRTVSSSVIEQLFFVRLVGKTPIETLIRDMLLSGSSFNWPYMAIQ

[4] = control 3'UTR Renilla luciferase suppression, dose response, counter-screen for Shn3 inhibitor project, cell-based, Clone20-Shn3RL, cherry-picked (AID 624133); type: functional
[5] = target: Potassium channel subfamily K member 9 (Homo sapiens, UniProt Q9NPC2); assay: TASK3 (KCNK9) channel inhibitors, thallium flux, SAR follow-up, selectivity assay for TASK1 inhibitor project, cell-based, FluxOR thallium flux, concentration-response (AID 652211); type: functional;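 further: potency is for inhibitors of the channel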
[6] = inhibitors of SNCA 5'UTR-driven reporter translation, confirmation, H4 neuroglioma cells, luminescence (AID 1988); type: functional, cell-based
[7] = C. albicans growth with fluconazole, confirmation, fluorescence, retest (AID 2467); type: functional, cell-based
Nonstructural protein 1 = Nonstructural protein 1 (Influenza A virus, UniProt Q194T2); type: functional, Influenza A virus (A/California/07/2009(H1N1))
[8] = inhibitors of firefly luciferase expression or activity, dose response, H4 neuroglioma cells, luminescence (AID 1990); type: functional, cell-based
[9] = NIH-3T3 fibroblast cytotoxicity, dose response, cytotoxicity control, cell-based, fluorescence, Alamar Blue, secondary assay (AID 2327); type: functional;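 further: NIH-3T3 mouse fibroblasts cultured with fluconazole at 8 µg/mL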
[10] = Luminescence Cell-Based Dose Response HTS to Identify Inhibitors of 5'UTR Stem-Loop Driven Prion Protein mRNA Translation in H4 Neuroglioblastoma Cells. [Related pubchem assays: 1827 (Project Summary), 1813 (Primary HTS)]; type: functional
[11] = target: T4, Histone-lysine N-methyltransferase NSD2 (Homo sapiens, UniProt O96028); type: biochemical
T4 sequence (O96028 whole entry): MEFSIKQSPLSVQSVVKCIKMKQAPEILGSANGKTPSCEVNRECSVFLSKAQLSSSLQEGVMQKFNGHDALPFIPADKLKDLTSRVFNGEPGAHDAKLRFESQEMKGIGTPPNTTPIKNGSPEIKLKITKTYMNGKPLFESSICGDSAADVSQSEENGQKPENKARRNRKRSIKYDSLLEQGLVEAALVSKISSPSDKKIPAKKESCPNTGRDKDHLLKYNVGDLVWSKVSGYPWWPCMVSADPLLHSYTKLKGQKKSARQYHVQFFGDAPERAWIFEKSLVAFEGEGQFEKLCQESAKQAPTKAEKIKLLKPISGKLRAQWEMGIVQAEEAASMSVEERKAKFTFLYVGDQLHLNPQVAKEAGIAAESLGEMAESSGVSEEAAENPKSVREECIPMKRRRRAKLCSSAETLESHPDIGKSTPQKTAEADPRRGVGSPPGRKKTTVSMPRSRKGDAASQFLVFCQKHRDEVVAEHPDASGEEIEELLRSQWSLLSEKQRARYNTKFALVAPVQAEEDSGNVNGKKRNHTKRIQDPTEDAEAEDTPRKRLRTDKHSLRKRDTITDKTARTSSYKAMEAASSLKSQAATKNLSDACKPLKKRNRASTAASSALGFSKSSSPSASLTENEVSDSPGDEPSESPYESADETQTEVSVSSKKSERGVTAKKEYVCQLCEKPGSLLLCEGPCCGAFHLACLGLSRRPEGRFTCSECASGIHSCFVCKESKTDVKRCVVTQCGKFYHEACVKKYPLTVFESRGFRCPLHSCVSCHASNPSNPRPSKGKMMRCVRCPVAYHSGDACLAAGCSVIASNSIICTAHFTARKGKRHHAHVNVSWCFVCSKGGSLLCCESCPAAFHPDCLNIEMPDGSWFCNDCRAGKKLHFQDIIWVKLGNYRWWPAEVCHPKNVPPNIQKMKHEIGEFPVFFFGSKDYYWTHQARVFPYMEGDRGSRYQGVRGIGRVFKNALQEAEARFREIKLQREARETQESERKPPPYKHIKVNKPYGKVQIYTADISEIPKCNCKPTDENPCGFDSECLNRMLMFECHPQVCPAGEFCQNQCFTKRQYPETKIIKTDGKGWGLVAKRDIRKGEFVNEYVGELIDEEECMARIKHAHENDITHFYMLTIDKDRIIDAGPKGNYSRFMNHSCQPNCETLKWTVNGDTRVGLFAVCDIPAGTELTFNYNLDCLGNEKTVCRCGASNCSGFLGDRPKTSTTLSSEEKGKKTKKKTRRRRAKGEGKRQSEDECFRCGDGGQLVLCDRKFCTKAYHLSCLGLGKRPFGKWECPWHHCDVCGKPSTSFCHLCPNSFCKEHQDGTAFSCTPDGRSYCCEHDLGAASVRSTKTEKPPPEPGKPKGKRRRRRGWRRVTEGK

[12] = HepG2 cell cytotoxicity, dose response, cytotoxicity control, plate reader, cherry-pick, antagonist series (AID 743416); type: functional, cell-based
[13] = MC4R antagonists, dose response, counter-screen for LGR2 antagonist project, cell-based, plate reader, cherry pick (AID 743444); type: functional;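 further: transfected HEK 293 cells stimulated with alpha-MSH peptide; potency of inhibitors of the alpha-MSH evoked signal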
[14] = A549 cell cytotoxicity, dose response, cytotoxicity control, plate reader, cherry-pick, antagonist series (AID 743412); type: functional, cell-based
[15] = HEK293 cell cytotoxicity, dose response, cytotoxicity control, plate reader, cherry-picked samples (AID 743446); type: functional, cell-based
[16] = inhibitors of PGC1a acetylation in cells, dose response, cell-based, cherry-picked samples (AID 720514); type: functional;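 further: potency may reflect raised or lowered acetylation signal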
[17] = LGR2 antagonists, dose response, cell-based, HEK293, CRE-luciferase reporter, cherry pick, set 2 (AID 743343); type: functional;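 further: transfected cells were stimulated with diluted bursicon conditioned medium after compound addition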
Protein RecA = target: T5, Protein RecA (Mycobacterium tuberculosis, UniProt P9WHJ3); assay: Fluorescence Cell-Free Homogeneous Dose Retest to Identify Inhibitors of RecA-Intein Splicing Activity. [Related pubchem assays (depositor defined):AID2097, AID2223, AID489010, AID492950]; type: functional
T5 sequence (P9WHJ3 whole entry): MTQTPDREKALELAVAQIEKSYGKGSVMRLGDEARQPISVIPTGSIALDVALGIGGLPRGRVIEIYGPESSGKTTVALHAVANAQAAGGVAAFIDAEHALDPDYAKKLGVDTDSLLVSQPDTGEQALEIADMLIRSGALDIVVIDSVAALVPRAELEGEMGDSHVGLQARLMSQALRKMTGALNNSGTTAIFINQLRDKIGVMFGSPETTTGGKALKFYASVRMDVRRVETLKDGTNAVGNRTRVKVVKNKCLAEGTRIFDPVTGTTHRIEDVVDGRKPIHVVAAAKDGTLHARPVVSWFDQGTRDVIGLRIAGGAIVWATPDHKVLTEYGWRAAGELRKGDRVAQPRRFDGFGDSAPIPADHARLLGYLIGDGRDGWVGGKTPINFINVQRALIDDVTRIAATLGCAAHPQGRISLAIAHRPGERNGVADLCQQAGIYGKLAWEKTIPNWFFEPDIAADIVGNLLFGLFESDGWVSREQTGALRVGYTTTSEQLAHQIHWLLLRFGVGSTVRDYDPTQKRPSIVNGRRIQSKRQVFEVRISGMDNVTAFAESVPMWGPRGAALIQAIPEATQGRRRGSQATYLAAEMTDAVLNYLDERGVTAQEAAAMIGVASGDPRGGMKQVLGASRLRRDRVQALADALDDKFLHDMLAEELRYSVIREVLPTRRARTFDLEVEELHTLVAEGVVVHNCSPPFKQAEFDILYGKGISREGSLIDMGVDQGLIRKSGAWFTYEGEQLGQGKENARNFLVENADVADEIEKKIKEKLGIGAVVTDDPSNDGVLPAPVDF

[18] = target: T6, Tyrosyl-DNA phosphodiesterase 2 (Homo sapiens, UniProt O95551); assay: human TDP2 enzyme inhibitors, dose response, biochemical, epi absorbance, IC50 (AID 743297)
T6 sequence (O95551 whole entry): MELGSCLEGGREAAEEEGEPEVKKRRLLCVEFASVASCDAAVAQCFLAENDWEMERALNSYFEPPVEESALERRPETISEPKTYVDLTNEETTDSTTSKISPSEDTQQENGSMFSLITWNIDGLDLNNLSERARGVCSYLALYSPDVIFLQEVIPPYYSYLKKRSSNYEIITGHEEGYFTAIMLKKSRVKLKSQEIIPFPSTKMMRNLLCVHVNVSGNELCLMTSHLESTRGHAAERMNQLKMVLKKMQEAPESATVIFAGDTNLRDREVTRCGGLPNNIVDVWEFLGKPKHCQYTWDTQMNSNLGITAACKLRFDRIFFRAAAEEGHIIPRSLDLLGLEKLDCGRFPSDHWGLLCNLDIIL

Sequence of Potassium channel subfamily K member 9 (Q9NPC2 whole entry): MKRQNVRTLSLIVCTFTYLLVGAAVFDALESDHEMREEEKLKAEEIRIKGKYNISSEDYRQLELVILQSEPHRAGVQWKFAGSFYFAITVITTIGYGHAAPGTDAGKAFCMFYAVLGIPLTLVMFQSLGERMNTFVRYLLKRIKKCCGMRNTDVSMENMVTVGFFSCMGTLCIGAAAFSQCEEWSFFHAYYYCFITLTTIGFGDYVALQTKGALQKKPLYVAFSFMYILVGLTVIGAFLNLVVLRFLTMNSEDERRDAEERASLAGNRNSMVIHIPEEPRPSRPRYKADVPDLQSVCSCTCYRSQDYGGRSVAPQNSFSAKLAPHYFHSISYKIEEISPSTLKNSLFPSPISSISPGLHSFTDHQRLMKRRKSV
Sequence of Nonstructural protein 1 (Q194T2 whole entry): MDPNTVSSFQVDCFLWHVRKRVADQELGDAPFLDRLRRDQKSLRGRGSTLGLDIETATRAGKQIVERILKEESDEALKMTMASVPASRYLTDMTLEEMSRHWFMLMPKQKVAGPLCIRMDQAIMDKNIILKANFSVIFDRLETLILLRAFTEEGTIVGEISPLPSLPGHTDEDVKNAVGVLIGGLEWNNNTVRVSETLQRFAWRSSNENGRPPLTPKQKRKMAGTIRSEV

With O=C1NC(Cc2ccc(O)cc2)c2nc3ccc(Br)cc3c(=O)n2-c2ncccc21 (stereo unspecified) the AC50 (Caspase-6) was 35.4 µM (active).

For CC(=O)c1c(C)[nH]c(C(=O)COc2cc(C)ccc2C(C)C)c1C, the AC50 [1] was 1.25 µM (active), the EC50 (cells) was > 29.9 µM (inactive) and the IC50 (Galanin receptor type 3) was 1.24 µM (active). The AC50 [2] was 3.12 µM (active), the IC50 [3] was 5.74 µM (active) and the AC50 [4] was 8.41 µM (active).

With Cc1cccc(C(=O)Nc2cccc(NC(=O)c3ccccc3C)c2)c1 the IC50 [5] was 0.94 µM (active).

In the case of Cc1c(C)n(Cc2ccccc2)c2ncnc(Cl)c12, the IC50 [3] is reported as 10.7 µM (inactive).

For CC[n+]1c(/C=C/C=C/c2ccc(N(C)C)cc2)sc2ccccc21.[O-][Cl+3]([O-])([O-])[O-], the EC50 [6] was 0.666 µM (active), the EC50 (cells) was > 29.9 µM (inactive) and the IC50 (Galanin receptor type 3) was > 29.9 µM (inactive). The EC50 [7] was < 0.03 µM (active), the IC50 (Nonstructural protein 1) was 5.05 µM (active) and the EC50 [8] was 43.6 µM (active). For the same compound, the EC50 [9] was 82.9 µM (active), the EC50 [10] was 11.2 µM (active) and the AC50 [11] was 7.84 µM (active).

With C[C@@H]1CN([C@H](C)CO)C(=O)Cc2cc(NC(=O)Nc3ccc(F)cc3)ccc2O[C@@H]1CN(C)CC1CCCCC1 the AC50 [12] was 14.6 µM (active), the AC50 [13] was 56.6 µM (active) and the AC50 [14] was 15 µM (active). For the same compound, the AC50 [15] was 16.2 µM (active).

For O=C(Nc1cccc(NC(=O)c2ccccc2Cl)c1)c1ccccc1, the IC50 [5] was 33.4 µM (active).

In the case of C[C@H]1CN([C@@H](C)CO)S(=O)(=O)c2ccc(C#CC3CCCCC3)cc2O[C@@H]1CN(C)Cc1cccnc1, the AC50 [16] is reported as 10.4 µM (active).

With N#C[C@H]1[C@H](c2ccc(C#Cc3ccccc3F)cc2)[C@H](CO)N1C(=O)C1CCCC1 the AC50 [17] was 5.64 µM (active), the AC50 [12] was 34.5 µM (active) and the AC50 [13] was 4.57 µM (active). For the same compound, the AC50 [14] was 23.6 µM (active) and the AC50 [15] was 8.77 µM (active).

For S=C(Nc1ccc2nsnc2c1)N1CCCCCC1, the EC50 (Protein RecA) was 46.7 µM (active) and the IC50 [18] was > 128 µM (inactive).

— ChEMBL document CHEMBL1201862, “PubChem BioAssay data set” (2004)
